# According to patent US12240840B2, “Amide-substituted heterocyclic compounds for the treatment of conditions related to the modulation of IL-12, IL-23 and/or IFN-alpha” (BRISTOL-MYERS SQUIBB COMPANY, priority 2018, dated 2025):
# Test system: IFNα-induced pSTAT5 (pY694) in CD3 positive cells of human whole blood
# Experiment: IFNα-Induced STAT Phosphorylation in Human Whole Blood
# Assay type: cell-based
# Conditions: 1 h compound incubation, 1000 U/mL recombinant human IFNα A/D for 15 min, pSTAT5 in CD3 positive population, read-out: Human WB IFNα-Induced Stat Phosph. (IC50)
# Method in brief: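 Read-out is median fluorescence intensity of pSTAT5 (pY694) in the CD3-positive gate, by flow cytometry after fix/lyse and permeabilization. Before that, whole human blood anticoagulated with EDTA or ACD-A received compound for an hour and 1000 U/mL IFNα A/D for 15 min.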
row,IC50 [nM],SMILES
1,1070,"[2H]C([2H])([2H])NC(=O)c1nnc(NC(=O)C2CC2)cc1Nc1cccc(-c2cnn(CCNC(C)=O)c2)c1OC [Example 556, 4-((3-(1-(2-acetamidoethyl)-1H-pyrazol-4-yl)-2-methoxyphenyl)amino)-6-(cyclopropanecarboxamido)-N-(methyl-d3)pyridazine-3-carboxamide]"
2,> 10000,[2H]C([2H])([2H])NC(=O)c1cnc(NC(=O)C2CC2)cc1Nc1cccc(-c2ccn(CCNC(=O)COC)n2)c1OC [Example 473]

# Same assay, conditions: Homo sapiens, 1 h compound incubation, 1000 U/mL recombinant human IFNα A/D for 15 min, pSTAT5 in CD3 positive population, read-out: Human WB IFNα-Induced Stat Phosph. (IC50)
row,SMILES,IC50 [nM]
1,[2H]C([2H])([2H])NC(=O)c1nnc(NC(=O)C2CC2)cc1Nc1cccc(-c2ncc(C(=O)NCC#N)s2)c1OC [Example 300],330
2,[2H]C([2H])([2H])NC(=O)c1nnc(NC(=O)C2CC2)cc1Nc1cc(F)cc(-c2cc(C(=O)N3CC4CN(C)CC4C3)n(C)n2)c1OC (stereo not drawn) [Example 496],250
3,[2H]C([2H])([2H])NC(=O)c1cnc(Nc2cc(C)ccn2)cc1Nc1cccc(-c2noc(COC)n2)c1OC [Example 99],40
4,"[2H]C([2H])([2H])NC(=O)c1nnc(NC(=O)C2CC2)cc1Nc1cccc(-c2cnn(CC(=O)NCCOC)n2)c1OC [Example 426, 6-(cyclopropanecarboxamido)-4-((2-methoxy-3-(2-(2-((2-methoxyethyl)amino)-2-oxoethyl)-2H-1,2,3-triazol-4-yl)phenyl)amino)-N-trideuteromethylpyridazine-3-carboxamide]",30
5,[2H]C([2H])([2H])NC(=O)c1nnc(NC(=O)C2CC2)cc1Nc1cccc(-c2ncc(C(=O)NCCCN3CCCC3)s2)c1OC [Example 340],100
6,[2H]C([2H])([2H])NC(=O)c1cnc(Nc2cnn(C)n2)cc1Nc1cc(F)cc(-c2cc(C(=O)N(C)C)n(C)n2)c1OC [Example 553],120
7,[2H]C([2H])([2H])NC(=O)c1nnc(NC(=O)C2CC2)cc1Nc1cccc(-c2cc(C(=O)N3CCN(C)CC3)n(C)n2)c1OC [Example 480],70
8,[2H]C([2H])([2H])NC(=O)c1nnc(Nc2ccc(C)nn2)cc1Nc1cccc(-c2ccn(CCNC(=O)COC)n2)c1OC [Example 542],890
9,[2H]C([2H])([2H])NC(=O)c1nnc(NC(=O)C2CC2)cc1Nc1cccc(-c2ncc(C(=O)NCCN3CCN(C)CC3)s2)c1OC [Example 322],80
10,[2H]C([2H])([2H])NC(=O)c1nnc(NC(=O)C2CC2)cc1Nc1cccc(-c2ncc(CC(=O)NCCOC)s2)c1OC [Example 255],620
11,[2H]C([2H])([2H])NC(=O)c1nnc(NC(=O)C2CC2)cc1Nc1cccc(-c2ncc(NC(=O)CC#N)s2)c1OC [Example 284],> 10000
12,[2H]C([2H])([2H])NC(=O)c1nnc(NC(=O)C2CC2)cc1Nc1cccc(-c2cc(C(=O)N(C)CC(O)CO)n(C)n2)c1OC (stereo not drawn) [Example 520],770
13,[2H]C([2H])([2H])NC(=O)c1nnc(NC(=O)C2CC2)cc1Nc1cccc(-c2ncc(CC(=O)N(C)C)s2)c1OC [Example 256],130
14,[2H]C([2H])([2H])NC(=O)c1nnc(NC(=O)C2CC2)cc1Nc1cccc(-c2ncc(C(=O)NC3CCC(N(CC)CC)CC3)s2)c1OC (stereo not drawn) [Example 319],30
15,[2H]C([2H])([2H])NC(=O)c1nnc(NC(=O)C2CC2)cc1Nc1cccc(-c2ccn(CCNC(C)=O)n2)c1OC [Example 468],270
16,[2H]C([2H])([2H])NC(=O)c1nnc(NC(=O)C2CC2)cc1Nc1cccc(-c2ncc(C(=O)NCCC(N)=O)s2)c1OC [Example 311],200
17,[2H]C([2H])([2H])NC(=O)c1nnc(NC(=O)C2CC2)cc1Nc1cccc(-c2ncc(C(=O)NC3CCC(O)CC3)s2)c1OC (stereo not drawn) [Example 306],440
18,[2H]C([2H])([2H])NC(=O)c1nnc(NC(=O)C2CC2)cc1Nc1cc(F)cc(-c2cc(C(=O)N3CCC(c4ccccc4)CC3)n(C)n2)c1OC [Example 511],320
19,[2H]C([2H])([2H])NC(=O)c1nnc(Nc2cc(C)n(C)n2)cc1Nc1cccc(-c2ncc(C(=O)N3CCS(=O)(=O)CC3)s2)c1OC [Example 382],100
20,[2H]C([2H])([2H])NC(=O)c1nnc(NC(=O)C2CC2)cc1Nc1cccc(-c2ccn(CCNC(=O)CC#N)n2)c1OC [Example 470],340
21,[2H]C([2H])([2H])NC(=O)c1nnc(NC(=O)C2CC2)cc1Nc1cccc(-c2ncc(CNC(=O)OC(C)(C)C)s2)c1OC [Example 259],> 10000
22,[2H]C([2H])([2H])NC(=O)c1nnc(Nc2ccc(OC)nn2)cc1Nc1cccc(-c2csc(C(=O)NCCOC)n2)c1OC [Example 565],250
23,[2H]C([2H])([2H])NC(=O)c1cnc(NC(=O)C2CC2)cc1Nc1cccc(-c2nc(C3(NC(C)=O)CC3)no2)c1OC [Example 214],390

# Further lines, results first:
row,IC50 [nM],SMILES
1,280,[2H]C([2H])([2H])NC(=O)c1nnc(NC(=O)C2CC2)cc1Nc1cccc(-c2noc(C(C)(C)O)n2)c1OC [Example 73]
2,160,[2H]C([2H])([2H])NC(=O)c1nnc(NC(=O)C2CC2)cc1Nc1cccc(-c2noc(C(CC)C(=O)N3CCOCC3)n2)c1OC (stereo not drawn) [Example 45]
3,530,[2H]C([2H])([2H])NC(=O)c1nnc(NC(=O)C2CC2)cc1Nc1cccc(-c2cc(C(=O)NCCC3CCCN3C)n(C)n2)c1OC (stereo not drawn) [Example 533]
4,200,[2H]C([2H])([2H])NC(=O)c1nnc(NC(=O)C2CC2)cc1Nc1cccc(-c2cnn(CCO)n2)c1OC [Example 450]
5,550,[2H]C([2H])([2H])NC(=O)c1nnc(NC(=O)C2CC2)cc1Nc1cccc(-c2nc(CC(=O)NCC)no2)c1OC [Example 178]
6,130,[2H]C([2H])([2H])NC(=O)c1nnc(NC(=O)C2CC2)cc1Nc1cccc(-c2noc(C(C)C(=O)N3CCOCC3)n2)c1OC (stereo not drawn) [Example 29]
7,430,[2H]C([2H])([2H])NC(=O)c1nnc(NC(=O)C2CC2)cc1Nc1cccc(-c2noc(CCC(=O)N3CCOCC3)n2)c1OC [Example 25]
8,160,COc1c(Nc2cc(NC(=O)C3CC3)nnc2C(N)=O)cccc1-c1ncc(C(=O)N2CCCC2)s1 [Example 407]
9,170,COc1c(Nc2cc(NC(=O)C3CC3)nnc2C(N)=O)cccc1-c1ncc(C(=O)N(C)C)o1 [Example 413]
10,110,[2H]C([2H])([2H])NC(=O)c1nnc(NC(=O)C2CC2)cc1Nc1cccc(-c2ncc(C(=O)N3CCC[C@H]3CO)s2)c1OC [Example 302]
11,2010,[2H]C([2H])([2H])NC(=O)c1nnc(NC(=O)C2CC2)cc1Nc1cccc(-c2nc([C@H](C)NC(=O)OC)no2)c1OC [Example 182]
12,100,[2H]C([2H])([2H])NC(=O)c1nnc(NC(=O)C2CC2)cc1Nc1cccc(-c2nc(CN3CC4CN(C(C)=O)CC4C3)no2)c1OC (stereo not drawn) [Example 233]
13,240,[2H]C([2H])([2H])NC(=O)c1nnc(NC(=O)C2CC2)cc1Nc1cccc(-c2nc(CN3CCN(S(C)(=O)=O)CC3=O)no2)c1OC [Example 141]
14,1820,[2H]C([2H])([2H])NC(=O)c1nnc(NC(=O)C2CC2)cc1Nc1cccc(-c2nc(CNC(=O)CC#N)no2)c1OC [Example 148]
15,70,[2H]C([2H])([2H])NC(=O)c1nnc(NC(=O)C2CC2)cc1Nc1cccc(-c2ncc(C(=O)N3CCCN(C)CC3)s2)c1OC [Example 294]
16,110,[2H]C([2H])([2H])NC(=O)c1nnc(NC(=O)C2CC2)cc1Nc1cccc(-c2nc(CN3CCN(C(=O)CC#N)CC3)no2)c1OC [Example 134]

row,IC50 [nM],SMILES
1,1180,[2H]C([2H])([2H])NC(=O)c1nnc(NC(=O)C2CC2)cc1Nc1cccc(-c2nc([C@@H](C)NC(=O)CC)no2)c1OC [Example 196]
2,11,COc1c(Nc2cc(NC(=O)C3CC3)nnc2C(N)=O)cccc1-c1noc(CN(C)S(=O)(=O)C(C)C)n1 [Example 58]
3,23,[2H]C([2H])([2H])NC(=O)c1cnc(NC(=O)C2CC2)cc1Nc1cccc(-c2noc(CO)n2)c1OC [Example 98]
4,60,COc1c(Nc2cc(NC(=O)C3CC3)nnc2C(N)=O)cccc1-c1noc(CN(C(C)C)S(C)(=O)=O)n1 [Example 61]
5,1110,[2H]C([2H])([2H])NC(=O)c1nnc(NC(=O)C2CC2)cc1Nc1cccc(-c2nc(CNC(=O)CNC)no2)c1OC [Example 154]
6,210,COc1c(Nc2cc(NC(=O)C3CC3)nnc2C(N)=O)cccc1-c1noc([C@H]2CCCN2S(C)(=O)=O)n1 [Example 53]
7,230,[2H]C([2H])([2H])NC(=O)c1nnc(NC(=O)C2CC2)cc1Nc1cccc(-c2nc(CNC)no2)c1OC [Example 168]
8,9,CCS(=O)(=O)N(C)Cc1nc(-c2cccc(Nc3cc(NC(=O)C4CC4)nnc3C(N)=O)c2OC)no1 [Example 57]
9,240,[2H]C([2H])([2H])NC(=O)c1nnc(NC(=O)C2CC2)cc1Nc1cccc(-c2noc([C@@H](C)O)n2)c1OC [Example 85]
10,110,COc1c(Nc2cc(NC(=O)C3CC3)nnc2C(N)=O)cccc1-c1ncc(C(=O)NC(C)C)s1 [Example 404]
11,390,[2H]C([2H])([2H])NC(=O)c1nnc(NC(=O)C2CC2)cc1Nc1cccc(-c2cc(C(=O)N3CCC3)n(C)n2)c1OC [Example 538]
12,380,[2H]C([2H])([2H])NC(=O)c1nnc(NC(=O)C2CC2)cc1Nc1cccc(-c2nc(C)c(C(=O)NCCC3CCCN3C)s2)c1OC (stereo not drawn) [Example 355]
13,60,COCc1nc(-c2cccc(Nc3cc(NC(=O)C4CC4)nnc3C(N)=O)c2OC)no1 [Example 67]
14,19,COc1c(Nc2cc(NC(=O)C3CC3)ncc2C(N)=O)cccc1-c1nc(CN2CCN(S(C)(=O)=O)CC2)no1 [Example 577]
15,380,[2H]C([2H])([2H])NC(=O)c1nnc(NC(=O)C2CC2)cc1Nc1cccc(-c2noc(CNC(C)=O)n2)c1OC [Example 31]
16,100,[2H]C([2H])([2H])NC(=O)c1nnc(NC(=O)C2CC2)cc1Nc1cccc(-c2nc(CN3CCN(C(=O)C4(C#N)CC4)CC3)no2)c1OC [Example 133]
